Square brackets hold non-standard residues; d marks the D form. Peptide text beside a SMILES is read from it. Nle = CCCC[C@H](N)C(=O)O
What was measured:
[1] = tested on: Va15 cells; assay: Western analysis of survivin in nocodazole-arrested cells; assay type: cell-based, murine; details: Va15 at 39 degrees, nocodazole alone, twenty-four hours
Method: Western analysis was performed essentially as described (Murphy et al., 1999). Briefly, subconfluent cells were harvested and lysed in RIPA buffer (50 mM Tris at pH 7.4, 150 mM NaCl, 1% Triton X-100, 0.1% SDS, and 1% sodium deoxycholate) supplemented with protease inhibitors (1 mM PMSF, […], […], and […]). Protein concentrations were determined using the Bio-Rad Dc Protein Assay (Bio-Rad). Equal amounts of protein (between 50 and 120 ugs) were run on 10% or 12% SDS-polyacrylamide gels and transferred overnight onto PVDF membrane (Bio-Rad). Western blots were incubated in antibody in 5% nonfat dry milk in phosphate-buffered saline supplemented with 0.2% Tween 20 (PBST). Blots were incubated with primary antibody at the following dilutions: p53 Ab-6 (Calbiochem) 1:1000, actin, AC-15 (Sigma) at 1:5000, p21/waf1 (Calbiochem) 1:1000 and survivin (Novus) 1:1000. Blots were washed with PBST and incubated in horseradish peroxidase-linked secondary antibody (Jackson ImmunoResearch Laboratories) and developed via the chemiluminescence protocol provided by the manufacturer (NEN).
Va15 cells (temperature-sensitive p53 which is wild type at 32 degrees) were grown at 39 degrees (mutant p53, asynchronous growth), and arrested in G2/M following twenty-four hours of nocodazole treatment. […]

[2] = tested on: Vm10 cells; assay: Flow cytometry of sub-G1 population; assay type: cell-based, murine; details: Vm10 at 32 degrees (wt p53), 100 nM TSA, data not shown
[3] = tested on: MCF-7 cells; assay: Northern analysis of stathmin mRNA after adriamycin treatment; assay type: cell-based, human
Method: (§1) Sub-confluent cultures of MCF 7 and A2780 cells were treated with 100 nM trichostatin A (TSA, Sigma)for 2 hours, followed by incubation with 0.5 ug/ml adriamycin (doxorubicin, Sigma) for the indicated timepoints. Va15 cells grown at 39 degrees were treated with 100 nM TSA for two hours, followed by temperature shift to 32 degrees for 12 hours. p53 induction was monitored by western analysis of 100 ug protein as described (Murphy et al., Genes & Devel. 10:2971–2980, 1996), using 0.1ug/ml DO-1 (Ab-6, Calbiochem) or 421 (Ab-1, Calbiochem). MDM2 induction was monitored using the monoclonal antibody 2A10, kindly provided by Arnold Levine (Rockefeller University). For UV treatments, cells were irradiated with 4 J/m2 of UV-C with a Spectroline X series ultraviolet lamp, and output was monitored with a traceable UV light meter (Fisher Scientific). For ALLN treatment, MCF-7 cells were treated with 50 uM ALLN (calpain I inhibitor, Sigma) made in DMSO (dimethyl sulfoxide, Sigma) or with DMSO alone for 2 hours prior to harvesting.
(§2) Total RNA was isolated from cells using CsC1 purification (Murphy et al., Genes & Devel. 10:2971–2980, 1996) or using Trizol, as per the manufacturer (Gibco/BRL). Northern analyses were performed as described (Murphy et al., Genes & Devel. 10:2971–2980, 1996). Probes for Northerns were radio labeled using random primers (Prime-It-II, Stratagene) and α^32P dCTP (NEN). Autoradiographs were quantitated using NIH image software. The average values from three independent experiments were plotted onto bar graphs following normalization to GAPDH.
(§3) To extend these observations, the human tumor derived cell lines MCF7 (breast carcinoma)and A2780 (ovarian carcinoma) were analyzed following treatment with adriamycin to activate the endogenous, wild type p53 protein. Because of difficulties detecting human Map4 message, we analyzed the mRNA levels of stathmin (also called oncoprotein 18). We recently identified stathmin as a p53-repressed gene. A time course of treatment of MCF-7 cells with the DNA-damaging agent adriamycin (doxorubicin, DOX) results in approximately 30% reduction of stathmin RNA levels after 8 hours and 75% reduction after 24 hours. We chose to focus further on the 12 hour timepoint of adriamycin treatment, where 50% repression of stathmin was evident, in order to limit the toxicity sometimes associated with TSA (Yoshida et al., J Biol Chem 265:17174–17179, 1990). […] The results of three independent experiments indicate that the repression of stathmin expression evident after 12 hours of adriamycin treatment is completely abrogated by incubation with TSA. In contrast, neither the post-translational stabilization of p53 by adriamycin (DOX) nor the induction of the p53 response genes mdm2 and p21/waf1 were affected by TSA. […] We have performed identical experiments in A2780 cells (ovarian carcinoma, wt p53).

[4] = tested on: A2780 cells; assay: as above; assay type: cell-based, human; details: A2780, co-incubation with TSA, data not shown
Method: as §1, §2, §3

[5] = tested on: H1299 human lung adenocarcinoma; assay: Northern analysis of stathmin mRNA in p53-null cells; assay type: cell-based; details: H1299, null for p53
[6] = tested on: Va15 cells; assay: Flow cytometric analysis of cell cycle distribution; assay type: cell-based, murine; details: Va15 cells cultured at 32 degrees, TSA treatment, data not shown
[7] = tested on: Va15 cells; assay: Northern analysis of Map4 mRNA after p53 induction by temperature shift; assay type: cell-based, murine; details: temperature shift to 32 degrees (wt p53), 100 nM TSA
Method: as §1
Total RNA was isolated from cells using CsC1 purification (Murphy et al., Genes & Devel. 10:2971–2980, 1996) or using Trizol, as per the manufacturer (Gibco/BRL). Northern analyses were performed as described (Murphy et al., Genes & Devel. 10:2971–2980, 1996). […] Autoradiographs were quantitated using NIH image software. […]

[8] = tested on: Vm10 cells; assay: AMC caspase assay specific for caspase 3 (apoptosis); assay type: cell-based, murine
Method: Apoptosis was quantitated using the AMC caspase assay specific for caspase 3 (Pharmingen). Vm10 cells were grown at 39 degrees or temperature-shifted to 32 degrees for 24 hours in the presence or absence of 100 nM trichostatin A (TSA). Vm10 cells at 39 degrees were treated with staurosporine (Calbiochem) at 100 nM, or dilution vehicle (dimethyl sulfoxide), or tumor necrosis factor alpha plus cycloheximide (10 ng/mL TNFα, RD Systems, plus 40 ug/mL cycloheximide, Sigma). Cells were harvested, lysed, and lysate was monitored for the caspase-3-dependent hydrolysis of the fluorogenic substrate Ac-DEVD-AMC, according to protocols derived from the manufacturer (Pharmingen). As a control for non-specific proteolysis, lysates from 39 degrees and 32 degrees were also assayed in the presence of the caspase-3 inhibitor Ac-DEVD-CHO (N-acetyl-Asp-Glu-Val Asp-aldehyde, Pharmingen). Fluorescence emissions were quantified on a spectrofluorometer (VersaFluor Cuvette Fluorometer) with excitation wavelength of 360 nm. and emission of 460 nm. The data presented represent duplicate readings of the averaged values from two (TNFα and staurosporine) or three (temperature shift) independent experiments.
In order to assess the contribution of p53-mediated repression to apoptosis, we utilized the cell line Vm10. This murine cell line contains a stably-transfected p53 gene encoding a temperature-sensitive protein, as well as a constitutively expressed c-myc proto-oncogene; the characteristics of this line, and its ability to undergo apoptosis at 32 degrees, have been described (Chen et al., Mol Med 1:142–152, 1996). Temperature shift and wt p53 induction of these cells results in a significant increase in caspase-3 dependent AMC-DEVD hydrolysis, a read-out for apoptosis, as measured in a spectrofluorometric assay. […] Therefore, the ability of TSA to inhibit apoptosis is specific for p53-dependent apoptosis.

[9] = tested on: MCF-7 cells; assay: Immunoprecipitation-western analysis of p53 and p53-mSin3a complexes; assay type: cell-based, human; details: MCF-7, 50 uM ALLN, 2 hours
Method: as §1
Sub-confluent cultures of cells were harvested and lysed in NP-40 buffer supplemented with protease inhibitors (1 mM PMSF, 10 ug/ml pepstatin A, 10 ug/ml aprotinin, and 5ug/ml leupeptin). Protein concentrations were determined by the method of Bradford (BioRad). Equal ug amounts of protein (between 2.0 and 3.0 mg) were immunoprecipitated with 1 ug of each antibody, except for Va15 immunoprecipitations, which used 1000 ug protein, as described (Murphy et al., Genes & Devel. 10:2971–2980, 1996). For p300, antibody N15 (Santa Cruz Biotechnology) and AB-1 (Calbiochem) yielded similar results. Each IP was washed twice in NP-40 buffer (Wu, et al., Genes & Devel. 7:1126–1132, 1993), followed by 2 washes in RIPA buffer (50 mM Tris pH 7.4/150 mM NaCl/1% Triton X 100/0.1% SDSI 1% Na deoxycholate). Immunoprecipitations were run on 7.5–10% SDS-PAGE gels and transferred overnight onto Immuno-Blot PVDF membrane (BioRad). […]
These complexes persisted under stringent washing conditions (RIPA buffer washes, see Materials and Methods), and were not present using control antisera (rabbit IgG, lane 1). […] We next analyzed the p53-mSin3a interaction following post-translational stabilization of p53 mediated by DNA damaging agents. […]
We next analyzed the time-course of the p53-mSin3a interaction following exposure of cells to the DNA damaging agent adriamycin (doxorubicin). Both p53-mSin3a and p53 p300 complexes were monitored by IP-western analysis in a time course following adriamycin treatment of MCF-7 cells. As a control, p53 was immunoprecipitated using polyclonal antisera generated against full-length p53 (Santa Cruz Biotechnology). p53 levels were also assessed at each time point by western analyses (data not shown). […]

## COC(=O)Nc1nc2ccc(C(=O)c3cccs3)cc2[nH]1 [nocodazole]
[1]
  survivin expression: increased survivin expression

## CC(/C=C/C(=O)NO)=C\[C@@H](C)C(=O)c1ccc(N(C)C)cc1 [TSA, trichostatin A]
[2]
  sub-G1 population: reduces the sub-G1 population
[3]; MCF-7, 100 nM TSA alone
  effect on stathmin levels, TSA alone: undetectable effects on stathmin levels
[3]; MCF-7, 100 nM TSA plus adriamycin 12 hours
  effect on reduction of stathmin levels following adriamycin treatment: completely abrogate the reduction of stathmin levels
[4]
  effect on adriamycin-induced repression of stathmin: abrogate completely this repression
[5]
  effect on stathmin levels: neither TSA nor adriamycin had any effect on stathmin levels
[6]
  cell cycle distribution: did not alter the cell cycle distribution
[7]
  Map4 RNA levels, % of starting levels: approximately 80%
[8]; Vm10 at 32 degrees (wt p53), 100 nM TSA, 24 hours
  inhibition of caspase-3-dependent AMC hydrolysis: greater than 4 fold
[8]; Vm10 at 39 degrees (mutant p53), TSA treatment
  inhibition of apoptosis induced by staurosporine or tumor necrosis factor alpha: unable to significantly inhibit apoptosis

## CCCC[C@@H](C=O)NC(=O)[C@H](CC(C)C)NC(=O)[C@H](CC(C)C)NC(C)=O [ALLN] (Ac-Leu-Leu-[Nle]-aldehyde)
[9]
  increase in p53 protein: approximately 4 fold
  increase in the p53-mSin3a complex: undetectable increase in the p53-mSin3a complex

## N-acetyl-Asp-Glu-Val Asp-aldehyde [Ac-DEVD-CHO]
[8]; Vm10 lysate, addition of Ac-DEVD-CHO
  AMC cleavage in lysate with caspase-3 inhibitor added: negligible AMC cleavage

From patent US7053194B2, “Compositions and methods for p53-mediated repression of gene expression” (Fox Chase Cancer Center, priority 1999, dated 2006)
